Experimental data reported in US5800991A, “Nucleotide or nucleoside photoaffinity compound modified antibodies, methods for their manufacture and use thereof as diagnostics and therapeutics” (University of Kentucky Research Foundation, priority 1996, dated 1998).
Entries after “also recorded” stand apart in the source; their conditions may differ. Read-outs that look alike come from different tables or passages of the source.

Legend:
antibody affinity site = assay: Protection experiments with nucleotides and nucleosides against [γ^32 P]8-N3 ATP photolabeling; type: binding; details: data not shown
Description: (§1) Antibodies (3 μg) were incubated with 200 μM [γ^32 P]8-N3 ATP (5-30 mCi/μmole) in a final volume of 30 μL for 1 minute and photolyzed with a hand-held UV lamp at 254 nm for 1 min. The reactions were quenched with protein solubilizing mixture (10% SDS, 3.6M urea, 162 mM DTT, Pyronin Y and 20 mM Tris, pH 8.0) and analyzed by 6-14% gradient SDS-PAGE. The gels were stained with Coomassie Brilliant Blue, destained, and dried using a slab gel drier. ^32 P incorporation was detected by autoradiography and quantified by either scanning on an optical Image and Acquisition Analysis (Ambis, Inc.) or by cutting the appropriate band from the gel counting the radioactivity by liquid scintillation counting.
(§2) Antibody S1C5 (Maloney et al, Hybridoma, 4:191-209 (1985)), and 8019 (Koprowsky et al, Somat. Cell. Genet., 5:957-961 (1979)) each (3 μg) were incubated with increasing concentrations of [γ^32 P]8-N3 ATP for 1 min at 4° C. and photolyzed and analyzed as described above. Protection of photolabeling of S1C5 and 8019 was performed by incubating […] of antibodies with increasing concentrations of ATP for 2 min followed by incubation with 200 μM [γ^32 P]8-N3 ATP for 1 min and photolyzed and analyzed as described above. […]

8019 antibody [1] = assay: Inhibition by ATP of [γ^32 P]8-N3 ATP photolabeling of 8019 antibody; type: binding; details: 8019, 200 μM [γ^32 P]8-N3 ATP, in words
Description: as §1, §2

SIC5 antibody [2] = assay: Inhibition by ATP of [γ^32 P]-8-N3 ATP photoincorporation into SIC5 (S1C5) antibody; type: binding, murine
Description: The SIC5 antibody was again labeled, but in this example labeling was performed in the presence of increasing amounts of free ATP. Specifically,3 μg of the SIC5 antibody was photolyzed in the presence of 200 μm [γ^32 P]-8-N3 ATP using concentrations of ATP ranging from 0 to 700 μm. The labeled protein was again separated by SDS-PAGE; and radioactivity determined by liquid scintillation counting.
as §1
(§3) Antibody S1C5 (Maloney et al, Hybridoma, 4:191-209 (1985)), and 8019 (Koprowsky et al, Somat. Cell. Genet., 5:957-961 (1979)) each (3 μg) were incubated with increasing concentrations of [γ^32 P]8-N3 ATP for 1 min at 4° C. and photolyzed and analyzed as described above. Protection of photolabeling of S1C5 and 8019 was performed by incubating […] of antibodies with increasing concentrations of ATP for 2 min followed by incubation with 200 μM [γ^32 P]8-N3 ATP for 1 min and photolyzed and analyzed as described above. Protection experiments using amino acids were performed by incubating 3 μg of S1C5 antibody with increasing concentrations of amino acids for 2 min, followed by incubation with 200 μM [γ^32 P]8-N3 ATP for 1 min. Photolysis and analysis were performed as described.

8019 antibody [3] = assay: Photolabeling saturation of 8019 antibody with [γ^32 P]8-N3 ATP; type: binding; details: 8019, Example 10
Description: as §1, §2

SIC5 antibody [4] = assay: Photolabeling saturation of SIC5 (S1C5) antibody with [γ^32 P]-8-N3 ATP; type: binding, murine
Description: In particular, 3 μg of SIC5 antibody in […] of photolysis buffer was photolyzed with increasing concentrations of [γ^32 P]-8-N3 ATP and then separated by SDS-PAGE. ^32 P incorporation was detected by autoradiography and quantified by scanning on Optical Imaging Acquisition Analysis (Ambis, Inc.). Photoincorporation was quantitatively confirmed by cutting the appropriate band and determining radioactivity by liquid scintillation counting. […] It can further be seen that there is a defined saturating concentration of probe at about 200 μm for both chains. This saturation plateau provides strong evidence that there exists a unique and limited number of affinity sites of the antibody which are bound by the [γ^32 P]-8-N3 ATP compound.
as §1, §3

S1C5 antibody [5] = assay: Quantitative immuno-precipitation of [γ^32 P]8-N3 ATP labeled S1C5 (stoichiometry); type: binding, murine; details: triplicate experiments
Description: Amino acid sequence of S1C5 and 8019 were deduced from the cloned and sequenced V genes (FIG. 12c). The identified peptides from photoaffinity labeling corresponded to sequences located in the variable Ig domain. The peptides eluted first (T1) from each antibody are derived from the CDR1 domain of the variable light chain extending into FR2. The second eluted peptides (T2) are from the CDR3-FR4 region of the variable heavy chain domain. It is striking that both peptides included invariant aromatic residues, Trp H103 in the VH domain and the highly conserved Tyr L36 within the VL domain.

S1C5 antibody [6] = assay: Protection of S1C5 photolabeling by amino acids; type: binding, murine; details: 200 μM [γ^32 P]8-N3 ATP
Description: as §1, §2

38C13 tumor cells = assay: FACS of biotinylated 8-azidoadenosine labeled S1C5; type: cell-based, murine; details: biotinylated 8-N3 adenosine modified antibody
Description: (§4) Tumor cells (38C13 and LS174T, 1×10^6) were incubated with biotinylated 8-azidoadenosine labeled antibody S1C5 or 8019 (manuscript submitted) for 60 min. on ice. After washing with 5% FCS/PBS, Neutralite Avidin-FITC (Southern Biotechnology Associates, Inc.) was added and incubated for 30 min., fixed and subjected to flow cytometry. FACS data were generated front a minimum of 9900 cells per sample.
(§5) To determine whether the modification of this site affects antigen recognition the binding of photolabeled S1C5 (IgG2a, κ) and 8019 (IgG1, κ) to their respective antigens was tested, S1C5 is specific for a murine B-cell tumor idiotype 38C13 (13) and 8019 recognizes the CEA antigen (Koprowsky et al, Somat. Cell. Genet., 5:957-961 (1979)), expressed by the LS17T4 tumor cell line. […] Also, these same antibodies were photomodified with biotinylated 8-N3 adenosine and used in FACS. […] A comparison of the photoaffinity biotinylated antibodies with conventionally biotinylated antibodies in FACS produced nearly identical staining (manuscript submitted).

[7] = test system: murine B-cell tumor idiotype 38C13; assay: Competition of γ^32 P-labeled S1C5 binding to its cellular target by unlabeled antibody; type: cell-based; details: 38C13, data not shown
Description: as §5

[8] = test system: CEA antigen, LS174T tumor cells; assay: Competition of γ^32 P-labeled 8019 binding to its cellular target by unlabeled antibody; type: cell-based; details: data not shown
Description: as §5

LS174T tumor cells = assay: FACS of biotinylated 8-azidoadenosine labeled 8019; type: cell-based; details: biotinylated 8-N3 adenosine modified antibody
Description: as §4, §5

Molecule: [N-]=[N+]=Nc1nc2c(N)ncnc2n1[C@@H]1O[C@H](CO)[C@@H](O)[C@H]1O [8-azidoadenosine]
- binding relative to 8-N3 ATP (antibody affinity site): tighter binding than 8-N3 ATP

Molecule: Nc1ncnc2c1ncn2[C@@H]1O[C@H](COP(=O)(O)OP(=O)(O)OP(=O)(O)O)[C@@H](O)[C@H]1O [ATP]
- protection against photolabeling by ATP (8019 antibody [1]): Photolabeling could be prevented; also recorded: photolabeling is inhibited by ATP
- IC50 (SIC5 antibody [2]; 200 μm [γ^32 P]-8-N3 ATP, ATP 0 to 700 μm, Example 2, read-out: ATP concentration for 50% inhibition of labeling): ~350 µM
- IC50 (SIC5 antibody [2]; ATP vs [γ^32 P]-8-N3 ATP, FIG. 2 legend, read-out: 50% inhibition of photoincorporation): ~350 µM
- protection against photolabeling by ATP (SIC5 antibody [2]; S1C5, 200 μM [γ^32 P]8-N3 ATP, in words): Photolabeling could be prevented; also recorded: photolabeling is inhibited by ATP

Molecule: [N-]=[N+]=Nc1nc2c(N)ncnc2n1[C@@H]1O[C@H](COP(=O)(O)OP(=O)(O)O[32P](=O)(O)O)[C@@H](O)[C@H]1O [[γ^32 P]-8-N3 ATP]
- saturation of photolabeling (8019 antibody [3]): about 50 μM
- Kd (8019 antibody [3]; read-out: apparent Kd): 25 µM
- saturation of photolabeling (SIC5 antibody [4]; S1C5, Example 10): 150 to 175 µM
- Kd (SIC5 antibody [4]; S1C5, Example 10, read-out: apparent Kd): 75 µM
- saturating concentration of probe (SIC5 antibody [4]; [γ^32 P]-8-N3 ATP, both heavy and light chains, Example 1): about 200 μm
- photoincorporation into heavy and light chains (SIC5 antibody [4]; in words, Example 1): covalently attaching to both antibody heavy and light chains; also recorded: covalently attached to both heavy and light chains
- average number of molecules of 8-N3 ATP/Ig molecule (S1C5 antibody [5]): 1.9±0.2 molecules of 8-N3 ATP/Ig molecule

Molecule: N[C@@H](Cc1c[nH]c2ccccc12)C(=O)O [tryptophan]
- protection against photolabeling by amino acids (S1C5 antibody [6]): best protection

B1: S1C5: anti-B cell lymphoma idiotype antibody; specific for a murine B-cell tumor idiotype 38C13 (protein)
chain: QIVLTQSPAINSASLGERVTMTCTASSSVSSSYFHWYQQKQGSSPKLWIYTTSNLASGVPARFSGSGSGTSYSLTISSMEAEDAATYYCHQYHRSPLTFGAGTKLELKRAQVQLQQSDAILVKPGASVKISCKASGYTFTDHVIHWVKQRPEQLGEWIGFISPGNGDIRYNEKFKDKATADKSSSTAYMQLNSLTSEDSAVYFCKRSFYYYDDNYGDYWGQGTTLTVSSAK
modifications: photoaffinity label in the variable domains as tested: biotinylated 8-azidoadenosine (FACS) or [gamma-32P]8-N3ATP (cell binding competition); labelled residue not fixed
notes: anti-B cell lymphoma idiotype antibody; specific for a murine B-cell tumor idiotype 38C13
- binding to tumor cell targets by flow cytometry (38C13 tumor cells): recognized their specific tumor cell targets
- inhibition of γ^32 P-labeled antibody binding by unlabeled antibody [7]: inhibited on an apparent 1:1 ratio by unlabeled antibodies

B2: 8019: IgG1, κ antibody; recognizes the CEA antigen expressed by the LS17T4 tumor cell line (protein)
chain: DIVLTQSPASLSASVGETVTITCRASENIYSYLLWYQQKQGKSPQLLVYNAKTLAEGVPSRFSGSGSGTQFSLKINSLQPEDFGSYFCQHHFGTPWTFGGGTSLEIKRAEVNLEESGGGLVQPGGSMKLSCAASGFTESDAWMDWVRQSPEKGLEWVAEIRTKVNNHATYYAESVKGRFTISRDDSKSNVYLQMNSLRVEDTGIYYCTMAYYEAYWGQGTLVTSAAK
modifications: photoaffinity label in the variable domains as tested: biotinylated 8-azidoadenosine (FACS) or [gamma-32P]8-N3ATP (cell binding competition); labelled residue not fixed
notes: IgG1, κ antibody; recognizes the CEA antigen expressed by the LS17T4 tumor cell line
- inhibition of γ^32 P-labeled antibody binding by unlabeled antibody [8]: inhibited on an apparent 1:1 ratio by unlabeled antibodies
- binding to tumor cell targets by flow cytometry (LS174T tumor cells): recognized their specific tumor cell targets
